The target in assay [1] is T1, CFTR (primary human bronchial epithelial cells from a ΔF508 homozygous CF donor, CF-HBE cells) (Homo sapiens, UniProt P13569, DEL508-508).
T1 construct: Primary human bronchial epithelial cells from a ΔF508 homozygous CF donor; host or cells: primary human bronchial epithelial cells (CF-HBE), ΔF508/ΔF508 donor
As to the kind of experiment: TECC24 recording of CFTR-mediated transepithelial chloride transport, AUC fold over DMSO. The assay is classed as cell-based. The settings on record: test agent AUC of forskolin-stimulated IEQ divided by vehicle (DMSO) AUC, 48 hours incubation. The protocol: The effects of a test agent on CFTR-mediated transepithelial chloride transport was measured using TECC24 recording analysis. Test agents were solubilized in DMSO. Solubilized test agents were mixed with incubation medium containing DMEM/F12, Ultroser G (2%; Crescent Chemical, catalog #67042), Hyclone Fetal Clone II (2%; GE Healthcare, catalog #SH30066.02), bovine brain extract (0.25%; Lonza, catalog #CC-4098), insulin ([…]), IL-13 (10 ng/mL), hydrocortisone (20 nM), transferrin ([…]), triiodothyronine (500 nM), ethanolamine (250 nM), epinephrine (1.5 μM), phosphoethanolamine (250 nM), and retinoic acid (10 nM). Primary human bronchial epithelial cells from a ΔF508 homozygous CF donor (CF-HBE cells; from University of North Carolina Cystic Fibrosis Tissue Procurement Center), grown on Transwell HTS 24-well cell culture inserts (Costar, catalog #3378), were exposed to test agents or controls dissolved in incubation medium. The CF-HBE cells were cultured at 36.5° C. for 48 hours before TECC24 recordings were performed in the presence or absence of test agent, a positive control or vehicle (DMSO).
Following incubation, the transwell cell culture inserts containing the test agent or control-treated CF-HBE cells were loaded onto a TECC24 apparatus (TECC v7 or MTECC v2; EP Design) to record the transepithelial voltage (VT) and resistance (TEER) using 4 AgCl electrodes per well configured in current-clamp mode. The apical and basolateral bath solutions both contained (in mM) 140 NaCl, 5 KCl, 2 CaCl2), 1 MgCl2, 10 Hepes, and 10 glucose (adjusted to pH 7.4 with NaOH). To inhibit basal Na+ absorption, the ENaC inhibitor benzamil (10 μM) was added to the bath. Then, the adenylate cyclase activator, forskolin (10 μM), was added to the bath to activate CFTR. The forskolin-stimulated Cl—transport was halted by addition of CFTR inhibitor-172 (20 μM) to the bath at the end of the experiment to confirm specificity. VT and TEER recordings were digitally acquired at routine intervals using TECC or MTECC software (EP Design). VT and TEER were transformed into equivalent transepithelial Cl—current (IEQ), and the Area Under the Curve (AUC) of the IEQ time course between forskolin and CFTR inhibitor-172 addition is generated using Excel (Microsoft). Efficacy is expressed as the ratio of the test agent AUC divided by vehicle AUC. EC50s based on AUC are generated using the non-linear regression log(agonist) vs. response function in Prism software (Graphpad) with HillSlope fixed=1.
If a test agent increased the AUC of the forskolin-stimulated IEQ relative to vehicle in CF-HBE cells, and this increase was inhibited by CFTR inhibitor-172, then the test agent was considered a CFTR corrector.

The test system of the next assay is NBD1. The assay is described as follows: Aggregation analysis using differential static light scattering (DSLS), thermal stability of NBD1. The class given is binding, Human. The settings on record: 100 μM compound; ΔTagg = Tagg minus average Tagg of DMSO control wells; purified recombinant NBD1. Here is the method: Purified recombinant NBD1 was produced using previously described methods (A. Schmidt, J. L. Mendoza, P. J. Thomas (2011) Biochemical and Biophysical Approaches to Probe CFTR Structure (365-376) M. D. Amaral, K. Kunzelmann (eds.), Cystic Fibrosis, Methods in Molecular Biology 741, Springer Science+Business Media). The effect of test compounds on thermal stability of NBD1 was evaluated by differential static light scattering (DSLS) using the Harbinger Stargazer-384 instrument (Epiphyte Three, Toronto, Canada). Test compounds were dissolved and diluted to desired concentrations in 100% DMSO. The compounds or DMSO controls (100 nL) were stamped into wells of a […] low volume optical plate (Corning Inc., Corning, NY) using the Echo 555 acoustic liquid handler (Labcyte Inc., San Jose, CA).
NBD1 protein was diluted to 0.2 mg/ml in S200 buffer (50 mM Tris-HCl, 150 mM NaCl, 5 mM MgCl2, 2 mM ATP, 2 mM DTT, pH7.6) containing 1% glycerol. 10 uL of protein solution was aliquoted into the 384-well plate harboring the test compounds and 10 uL mineral oil was overlayed onto the protein solution, using the epMotion robotic liquid handler (Eppendorf North America, Hauppauge, NY). After placing into the Stargazer instrument, the plate was heated at 1° C. per minute to 70° C. Images were captured from 25° C. to 70° C. every 0.5° C. At the end of the experiment run, instrument software integrated image files and analyzed data automatically. A […] regression curve was generated for each well, representing the increase in light scattering over time. A temperature of aggregation (Tagg) was calculated based on the inflection point of the curve. To better compare data across experiments the average Tagg for DMSO control wells was calculated and subtracted from values for wells containing compounds to obtain a “ΔTagg” value. These ΔTagg values reflect stabilizing efficacy of the compounds.

T1 sequence (P13569 with tags, fused parts or gaps DEL508-508): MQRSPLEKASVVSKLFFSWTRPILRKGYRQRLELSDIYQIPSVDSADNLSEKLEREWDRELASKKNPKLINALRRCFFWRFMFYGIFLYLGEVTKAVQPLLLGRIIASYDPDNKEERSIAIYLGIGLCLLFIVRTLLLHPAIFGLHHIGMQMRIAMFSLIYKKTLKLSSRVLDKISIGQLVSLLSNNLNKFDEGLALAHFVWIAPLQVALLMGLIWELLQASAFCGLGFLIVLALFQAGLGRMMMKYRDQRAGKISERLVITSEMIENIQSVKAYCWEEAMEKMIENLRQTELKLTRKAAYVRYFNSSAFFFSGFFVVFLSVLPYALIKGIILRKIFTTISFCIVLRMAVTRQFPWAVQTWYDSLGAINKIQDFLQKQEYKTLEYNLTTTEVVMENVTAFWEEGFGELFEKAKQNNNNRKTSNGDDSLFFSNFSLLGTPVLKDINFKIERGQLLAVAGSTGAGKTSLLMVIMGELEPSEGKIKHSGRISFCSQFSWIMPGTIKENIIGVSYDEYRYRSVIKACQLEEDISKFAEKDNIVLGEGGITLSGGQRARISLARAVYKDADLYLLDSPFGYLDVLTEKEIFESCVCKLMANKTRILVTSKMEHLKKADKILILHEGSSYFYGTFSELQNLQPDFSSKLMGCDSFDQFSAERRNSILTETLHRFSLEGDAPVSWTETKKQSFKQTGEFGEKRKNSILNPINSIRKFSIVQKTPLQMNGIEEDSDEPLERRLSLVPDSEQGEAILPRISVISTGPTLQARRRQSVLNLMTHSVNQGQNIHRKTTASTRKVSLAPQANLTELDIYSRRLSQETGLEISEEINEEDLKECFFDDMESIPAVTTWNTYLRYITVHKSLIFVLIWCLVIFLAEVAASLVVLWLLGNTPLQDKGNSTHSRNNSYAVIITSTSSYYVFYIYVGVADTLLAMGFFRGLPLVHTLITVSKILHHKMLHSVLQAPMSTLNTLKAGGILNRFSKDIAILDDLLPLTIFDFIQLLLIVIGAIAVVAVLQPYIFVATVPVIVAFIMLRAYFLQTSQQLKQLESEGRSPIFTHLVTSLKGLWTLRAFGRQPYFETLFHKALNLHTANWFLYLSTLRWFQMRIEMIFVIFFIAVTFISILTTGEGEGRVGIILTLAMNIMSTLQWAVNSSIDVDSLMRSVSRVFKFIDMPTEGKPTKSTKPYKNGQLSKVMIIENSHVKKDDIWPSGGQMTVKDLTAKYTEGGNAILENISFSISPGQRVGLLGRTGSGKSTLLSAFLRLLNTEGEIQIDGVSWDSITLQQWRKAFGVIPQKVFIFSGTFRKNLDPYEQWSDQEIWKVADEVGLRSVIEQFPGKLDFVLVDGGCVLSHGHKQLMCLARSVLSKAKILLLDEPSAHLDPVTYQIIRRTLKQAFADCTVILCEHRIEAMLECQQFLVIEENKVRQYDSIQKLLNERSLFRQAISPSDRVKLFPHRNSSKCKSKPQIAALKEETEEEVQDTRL

On to `CC(c1nc2n(n1)CC(O)COc1ccc(Oc3c(F)cc4[nH]ccc4c3F)cc1-2)c1cccc(CCC(=O)O)c1F` (single isomer, unassigned) [Example 14, 3-[3-[1-[14-[(4,6-difluoro-1H-indol-5-yl)oxy]-8-hydroxy-10-oxa-3,5,6-triazatricyclo[9.4.0.02,6]pentadeca-1(15),2,4,11,13-pentaen-4-yl]ethyl]-2-fluoro-phenyl]propanoic acid], for which the “TECC24 @ 10 uM over DMSO” value in assay [1] is on record as “B (“B” refers to AUC @ 10 uM between 4-12)”. Also, the “DSLS NBD1/3D Human Stability delta-T (° C.) @ 100 (μM)” value (shortened to “DSLS NBD1/3D Human Stability delta-T”) in the assay with NBD1 was “A (A: T ≥ 8° C.)”.

Turning to `CC(c1cn2c(n1)-c1cc(Oc3c(F)cc4[nH]ccc4c3F)ccc1CCC2)c1cccc(CCC(=O)O)c1F` (stereo not shown) [Example 8, 3-(3-(1-(10-((4,6-difluoro-1H-indol-5-yl)oxy)-6,7-dihydro-5H-benzo[c]imidazo[1,2-a]azepin-2-yl)ethyl)-2-fluorophenyl)propanoic acid], the “DSLS NBD1/3D Human Stability delta-T” value in the assay on NBD1 was “A (A: T ≥ 8° C.)”.

As for `CC(c1cccc(CCC(=O)O)c1F)c1cnc2c3cc(Oc4c(F)cc5[nH]ccc5c4F)ccc3ccn12` (stereo not shown) [Example 7, 3-(3-(1-(9-((4,6-difluoro-1H-indol-5-yl)oxy)imidazo[2,1-a]isoquinolin-3-yl)ethyl)-2-fluorophenyl)propanoic acid], the “DSLS NBD1/3D Human Stability delta-T” value in the assay on NBD1 is “A (A: T ≥ 8° C.)”.

Turning to `C[C@@H](c1cccc(CC(=O)O)c1F)c1cnc2n1CCc1ccc(Oc3c(F)cc4[nH]ccc4c3F)cc1-2` (single isomer, unassigned) [Example 1], in the assay on NBD1, the “DSLS NBD1/3D Human Stability delta-T” value is listed as “A (A: T ≥ 8° C.)”.

In the case of `C[C@H](c1cccc(CC(=O)O)c1F)c1cnc2n1CCc1ccc(Oc3c(F)cc4[nH]ccc4c3F)cc1-2` (single isomer, unassigned) [Example 2], the “DSLS NBD1/3D Human Stability delta-T” value with NBD1 is recorded as “A (A: T ≥ 8° C.)”.

Regarding `CC(c1nc2n(n1)CCCOc1ccc(Oc3c(F)cc4[nH]ccc4c3F)cc1-2)c1cccc(CCC(=O)O)c1F` (stereo not shown) [Example 11, 3-[3-[1-[14-[(4,6-difluoro-1H-indol-5-yl)oxy]-10-oxa-3,5,6-triazatricyclo[9.4.0.02,6]pentadeca-1(15),2,4,11,13-pentaen-4-yl]ethyl]-2-fluoro-phenyl]propanoic acid], in assay [1], the “TECC24 @ 10 uM over DMSO” value is recorded as “C (“C” refers to AUC @10 uM <= 4)”. In addition, the “DSLS NBD1/3D Human Stability delta-T” value in the assay on NBD1 is listed as “A (A: T ≥ 8° C.)”.

As to `CC(c1nc2n(n1)CC(CO)Oc1ccc(Oc3c(F)cc4[nH]ccc4c3F)cc1-2)c1cccc(CCC(=O)O)c1F` (stereo not shown) [Example 12, 3-[3-[1-[10-[(4,6-difluoro-1H-indol-5-yl)oxy]-6-(hydroxymethyl)-5,6-dihydro-[1,2,4]triazolo[1,5-d][1,4]benzoxazepin-2-yl]ethyl]-2-fluoro-phenyl]propanoic acid], the “DSLS NBD1/3D Human Stability delta-T” value in the assay on NBD1 was “A (A: T ≥ 8° C.)”.

As for `CC(c1nc2n(n1)CCCc1ccc(Oc3c(F)cc4[nH]ccc4c3F)cc1-2)c1cccc(CCC(=O)O)c1F` (stereo not shown) [Example 9, 3-(3-(1-(10-((4,6-difluoro-1H-indol-5-yl)oxy)-6,7-dihydro-5H-benzo[c][1,2,4]triazolo[1,5-a]azepin-2-yl)ethyl)-2-fluorophenyl)propanoic acid], the “DSLS NBD1/3D Human Stability delta-T” value with NBD1 is listed as “B (B: 4-8° C.)”.

For the compound `CC(c1cccc(CC(=O)O)c1F)c1cnc2c3cc(Oc4c(F)cc5[nH]ccc5c4F)ccc3ccn12` (stereo not shown) [Example 3, 2-(3-(1-(9-((4,6-difluoro-1H-indol-5-yl)oxy)imidazo[2,1-a]isoquinolin-3-yl)ethyl)-2-fluorophenyl)acetic acid], the “TECC24 @ 10 uM over DMSO” value in assay [1] was “A (“A” refers to AUC @10 uM >= 12)”. The “DSLS NBD1/3D Human Stability delta-T” value with NBD1 was “A (A: T ≥ 8° C.)”.

`C[C@H](c1cccc(CCC(=O)O)c1F)c1cnc2n1CCc1ccc(Oc3c(F)cc4[nH]ccc4c3F)cc1-2` (single isomer, unassigned) [Example 6]: in assay [1], the “TECC24 @ 10 uM over DMSO” value was “A (“A” refers to AUC @10 uM >= 12)”. Besides, in the assay on NBD1, the “DSLS NBD1/3D Human Stability delta-T” value is on record as “A (A: T ≥ 8° C.)”.

As for `COC(=O)CCc1cccc(C(C)c2nc3n(n2)CCCOc2ccc(Oc4c(F)cc5[nH]ccc5c4F)cc2-3)c1F` (stereo not shown) [Example 10, methyl 3-(3-(1-(11-((4,6-difluoro-1H-indol-5-yl)oxy)-6,7-dihydro-5H-benzo[b][1,2,4]triazolo[5,1-d][1,5]oxazocin-2-yl)ethyl)-2-fluorophenyl)propanoate], in assay [1], the “TECC24 @ 10 uM over DMSO” value is on record as “C (“C” refers to AUC @10 uM <= 4)”. Further, in the assay with NBD1, the “DSLS NBD1/3D Human Stability delta-T” value was “C (C: ≤ 4° C.)”.

Turning to `CC(c1nc2n(n1)CCOc1ccc(Oc3c(F)cc4[nH]ccc4c3F)cc1-2)c1cccc(CCC(=O)O)c1F` (single isomer, unassigned) [Example 15, 3-[3-[1-[10-[(4,6-difluoro-1H-indol-5-yl)oxy]-5,6-dihydro-[1,2,4]triazolo[1,5-d][1,4]benzoxazepin-2-yl]ethyl]-2-fluoro-phenyl]propanoic acid], in assay [1], the “TECC24 @ 10 uM over DMSO” value is on record as “A (“A” refers to AUC @10 uM >= 12)”. Further, the “DSLS NBD1/3D Human Stability delta-T” value in the assay with NBD1 was “A (A: T ≥ 8° C.)”.

On to `CC(c1nc2n(n1)CC(O)COc1ccc(Oc3c(F)cc4[nH]ccc4c3F)cc1-2)c1cccc(CCC(=O)O)c1F` (single isomer, unassigned) [Example 13, 3-[3-[1-[14-[(4,6-difluoro-1H-indol-5-yl)oxy]-8-hydroxy-10-oxa-3,5,6-triazatricyclo[9.4.0.02,6]pentadeca-1(15),2,4,11,13-pentaen-4-yl]ethyl]-2-fluoro-phenyl]propanoic acid], for which the “TECC24 @ 10 uM over DMSO” value in assay [1] is “C (“C” refers to AUC @10 uM <= 4)”. Also, the “DSLS NBD1/3D Human Stability delta-T” value with NBD1 is “A (A: T ≥ 8° C.)”.

On to `O=C(O)CCc1cccc(Cc2nc3n(n2)Cc2ccc(Oc4c(F)cc5[nH]ccc5c4F)cc2-3)c1F` [Example 4, 3-(3-((8-((4,6-difluoro-1H-indol-5-yl)oxy)-5H-triazolo[5,1-a]isoindol-2-yl)methyl)-2-fluorophenyl)propanoic acid], for which the “TECC24 @ 10 uM over DMSO” value in assay [1] was “B (“B” refers to AUC @ 10 uM between 4-12)”. For the same compound, the “DSLS NBD1/3D Human Stability delta-T” value in the assay on NBD1 is “B (B: 4-8° C.)”.

Regarding `CC(c1nc2n(n1)CCOc1ccc(Oc3c(F)cc4[nH]ccc4c3F)cc1-2)c1cccc(CCC(=O)O)c1F` (single isomer, unassigned) [Example 16, 3-[3-[1-[10-[(4,6-difluoro-1H-indol-5-yl)oxy]-5,6-dihydro-[1,2,4]triazolo[1,5-d][1,4]benzoxazepin-2-yl]ethyl]-2-fluoro-phenyl]propanoic acid], the “DSLS NBD1/3D Human Stability delta-T” value in the assay on NBD1 was “C (C: ≤ 4° C.)”.

As for `C[C@@H](c1cccc(CCC(=O)O)c1F)c1cnc2n1CCc1ccc(Oc3c(F)cc4[nH]ccc4c3F)cc1-2` (single isomer, unassigned) [Example 5], in assay [1], the “TECC24 @ 10 uM over DMSO” value is listed as “C (“C” refers to AUC @10 uM <= 4)”. Besides, the “DSLS NBD1/3D Human Stability delta-T” value in the assay on NBD1 is on record as “B (B: 4-8° C.)”.

The values above are taken from patent publication US20260232691A1, “NBD1 MODULATORS AND METHODS OF USING THE SAME” (Sionna Therapeutics Inc., priority 2023, published 2026).
